“Also recorded” adds a separate entry of the source.
How the values were obtained:
purified human pDC = experiment: IFN-α production by TLR-activated purified pDC, ELISA; assay type: cell-based; conditions: for IFN-α production: subunit-specific PI3K inhibitors
purified pDC [1] = experiment: IL-6 and TNF-α production by TLR-activated pDC, ELISA and real-time PCR; assay type: cell-based, human; conditions: CpG-A or CpG-B 0.5 μM; 16 hr; ELISA
purified pDC [2] = experiment: pDC viability, flow cytometry based LIVE/DEAD assay; assay type: cell-based, human; conditions: CpG-C 1 μM plus various concentrations of LY; 20 h; listed as LY
Experimental: Purified pDC were stimulated with CpG-C ISS (1 μM) either alone or in combination with various concentration of PI3K inhibitor LY. After 20 h, viability was assessed using a flow cytometry based viability assay (LIVE/DEAD Viability/Cytotoxicity Kit from Molecular Probe). Average of […] independent donors is shown.

NF-kB p65 (pS529) = experiment: NF-kB p65 phosphorylation in pDC, flow cytometry; assay type: cell-based, human; conditions: CpG-C 1 μM; LY 1 or 5 μM, NF-kB inhibitor 0.5 μM; 90 min
Experimental: Accordingly, purified PDC were cultured with CpG-C ISS (1 μM) with or without PI3K inhibitor LY (1 μM or 5 μM) or NF-kB inhibitor (0.5 μM) for 90 min and analyzed by NF-kB flow cytometry. As described above, negatively purified pDC were stimulated with CpG-C and cells were immediately fixed with 4% of paraformaldehyde for 15 min a 37 C. Cells were then washed, permeabilized with PermBuffer III (BD bioscience) for 30 minutes on ice and stained with either Alexa-647 anti-human NF-kB p65 (pS529) for 30 min and then analyzed by flow cytometry.

With `O=C1NC(=O)/C(=C/c2ccc3c(c2)OC(F)(F)O3)S1` [AS604850] the “concentration at which an effect on IFN-α production is observed” value (purified human pDC; CpG-C 1 μM, 16 hr, specificity for gamma subunit lost) was over 20 µM and the IFN-α production (purified human pDC; CpG-C 1 μM, 16 hr) was “did not observe any effect”.
With `Cc1ccccc1-n1c(Cn2cnc3c(N)ncnc32)nc2cccc(C)c2c1=O` [IC87114] the IFN-α production (purified human pDC; CpG-C 1 μM, 16 hr) was “inhibited”.
In the case of `O=c1cc(N2CCOCC2)oc2c(-c3ccccc3)cccc12` [LY294002], the “IL-6 production in response to CpG-A and CpG-B” value (purified pDC [1]) is reported as “no significant inhibition”, the pDC viability (purified pDC [2]) is reported as “no negative effect; also recorded: does not affect” and the “inhibition of IFN-α” value (purified human pDC; LY concentrations as low as 0.08 μM, TLR9) is reported as 50%. For the same molecule, the “concentration of maximal effect on IFN-α production” value (purified human pDC; both TLR7 and TLR9 ligands, 16 hr) was 1.25 µM.
In the case of `NC(=O)Nc1sc(-c2ccc(F)cc2)cc1C(N)=O` [NF-kB inhibitor], the NF-kB phosphorylation (NF-kB p65 (pS529)) is reported as “inhibited”.

— patent publication US20090131512A1, “Inhibition of type I in IFN production” (Dynavax Technologies Corp., priority 2007, published 2009)
